In PMC8187944, “Discovery of Potent EGFR Inhibitors With 6-Arylureido-4-anilinoquinazoline Derivatives” (Frontiers in Pharmacology, 2021):

Columns and labels:
A549 cells = assay: Anti-proliferative assay, standard CCK-8 method; type: cell-based, human; conditions: Homo sapiens, mean ± SD of at least three independent experiments, read-out: Proliferative inhibition (IC50, μM) A549
Excerpt: (§1) All reagents and solvents met the criteria of analytical reagents before use. All cancer cell lines (A549, human non-small-cell lung cell line; HT-29, human colonic adenocarcinoma cell line; MCF-7, human breast cancer cell line) were purchased from Stem Cell Bank, Chinese Academy of Sciences. […] ADP-Glo™ kinase assay kits were provided by Promega (Beijing) Biotech Co., Ltd. (Beijing, China). All kinase subtypes were supplied by SignalChem (BC, Canada).
(§2) The designed 4-anilinoquinazoline derivatives were evaluated for their antitumor bioactivities in vitro against three human tumor cell lines (A549, HT-29, and MCF-7) using the standard CCK-8 method. The CCK-8 method is based on WST-8 dye, 2-(2-methoxy-4-nitrophenyl)-3-(4-nitrophenyl)-5-(2,4-disulfophenyl)-2H-tetrazolium. WST-8 can be bio-reduced by dehydrogenases in mitochondria into orange water-soluble formazan products. Briefly, selected cancer cells in the logarithmic growth phase (1 × 10^4) were inoculated in 96-well plates and further cultured in the incubator for 24 h. First, the target compounds were diluted to different concentrations with culture medium with each dilution gradually diluted from the highest concentration solution. Second, the original culture medium was removed after the cells were completely adherent to the wall, and the compounds at various concentrations prepared above were added. In this experiment, a control group and a blank group were set: the former was treated with 0.1% DMSO solution, and the latter was treated with only the culture medium. […] A microplate reader was adopted to record the absorbance at 450 nm, and in this assay, gefitinib, erlotinib, and sorafenib were used as the reference drugs.

HT-29 cells = assay: Anti-proliferative assay, standard CCK-8 method; type: cell-based, human; conditions: Homo sapiens, mean ± SD of at least three independent experiments, read-out: Proliferative inhibition (IC50, μM) HT-29
Excerpt: as §1, §2

MCF-7 cells = assay: Anti-proliferative assay, standard CCK-8 method; type: cell-based, human; conditions: Homo sapiens, MCF7, mean ± SD of at least three independent experiments, read-out: Proliferative inhibition (IC50, μM) MCF-7
Excerpt: as §1, §2

EGFR = target: T1, EGFR (Homo sapiens, UniProt P00533); assay: EGFR kinase inhibition, ADP-Glo assay; type: biochemical
T1 construct: 2 μl (50 ng/ml) of EGFR kinase
Description: The EGFR kinase inhibition activities of the target compounds were evaluated by the ADP-Glo™ assay. The ADP-Glo™ kinase detection kit is a luminescence kinase detection approach that detects the amount of ADP produced by the kinase reaction. After ADP is converted into ATP, ATP can be used as the substrate of the luciferase-catalyzed reaction to generate an optical signal, which is positively correlated with kinase activity. […] The above-prepared systems were sealed and incubated at room temperature for 2 h, and 5 μl of ADP-GLO was added to terminate the kinase reaction. Then, the culture plate was sealed and incubated in a thermostatic oscillator for 40 min to fully consume the remaining ATP. The luciferase/luciferin reaction was adopted to determine the newly generated ATP level.

Aqueous solubility = type: physicochemical; conditions: in words
FGFR2 = FGFR2 (Homo sapiens, UniProt P21802); assay: Kinase spectrum assay (ADP-Glo); conditions: remaining enzyme activity at 1 μm compound
HER4 = HER4 (Homo sapiens, UniProt Q15303); assay: Kinase spectrum assay (ADP-Glo); conditions: remaining enzyme activity at 1 μm compound
LCK = LCK (Homo sapiens, UniProt P06239); assay: Kinase spectrum assay (ADP-Glo); conditions: remaining enzyme activity at 1 μm compound
Syk = Syk (Homo sapiens, UniProt P43405); assay: Kinase spectrum assay (ADP-Glo); conditions: remaining enzyme activity at 1 μm compound
FLT3 = FLT3 (Homo sapiens, UniProt P36888); assay: Kinase spectrum assay (ADP-Glo); conditions: remaining enzyme activity at 1 μm compound
NIK = NIK (Homo sapiens, UniProt Q99558); assay: Kinase spectrum assay (ADP-Glo); conditions: remaining enzyme activity at 1 μm compound
PKCa = PKCa (Homo sapiens, UniProt P17252); assay: Kinase spectrum assay (ADP-Glo); conditions: remaining enzyme activity at 1 μm compound
ROCK1 = ROCK1 (Homo sapiens, UniProt Q13464); assay: Kinase spectrum assay (ADP-Glo); conditions: remaining enzyme activity at 1 μm compound
PDK1 = PDK1 (Homo sapiens, UniProt O15530); assay: Kinase spectrum assay (ADP-Glo); conditions: remaining enzyme activity at 1 μm compound
PKACα = PKACα (Homo sapiens, UniProt P17612); assay: Kinase spectrum assay (ADP-Glo); conditions: remaining enzyme activity at 1 μm compound
Chk1 = Chk1 (Homo sapiens, UniProt O14757); assay: Kinase spectrum assay (ADP-Glo); conditions: remaining enzyme activity at 1 μm compound
MAPKAPK2 = MAPKAPK2 (Homo sapiens, UniProt P49137); assay: Kinase spectrum assay (ADP-Glo); conditions: remaining enzyme activity at 1 μm compound
MELK = MELK (Homo sapiens, UniProt Q14680); assay: Kinase spectrum assay (ADP-Glo); conditions: remaining enzyme activity at 1 μm compound
CAMK2α = CAMK2α (Homo sapiens, UniProt Q9UQM7); assay: Kinase spectrum assay (ADP-Glo); conditions: remaining enzyme activity at 1 μm compound
CLK3 = CLK3 (Homo sapiens, UniProt P49761); assay: Kinase spectrum assay (ADP-Glo); conditions: remaining enzyme activity at 1 μm compound
ERK2 = ERK2 (Homo sapiens, UniProt P28482); assay: Kinase spectrum assay (ADP-Glo); conditions: remaining enzyme activity at 1 μm compound
GSK3β = GSK3β (Homo sapiens, UniProt P49841); assay: Kinase spectrum assay (ADP-Glo); conditions: remaining enzyme activity at 1 μm compound
IRAK4 = IRAK4 (Homo sapiens, UniProt Q9NWZ3); assay: Kinase spectrum assay (ADP-Glo); conditions: remaining enzyme activity at 1 μm compound
B-raf = B-raf (Homo sapiens, UniProt P15056); assay: Kinase spectrum assay (ADP-Glo); conditions: remaining enzyme activity at 1 μm compound
other protein kinases = assay: Kinase spectrum assay (ADP-Glo), text summary for kinases other than EGFR; conditions: all panel kinases other than EGFR, at 1.0 μm compound

T1 sequence (P00533 25-1210): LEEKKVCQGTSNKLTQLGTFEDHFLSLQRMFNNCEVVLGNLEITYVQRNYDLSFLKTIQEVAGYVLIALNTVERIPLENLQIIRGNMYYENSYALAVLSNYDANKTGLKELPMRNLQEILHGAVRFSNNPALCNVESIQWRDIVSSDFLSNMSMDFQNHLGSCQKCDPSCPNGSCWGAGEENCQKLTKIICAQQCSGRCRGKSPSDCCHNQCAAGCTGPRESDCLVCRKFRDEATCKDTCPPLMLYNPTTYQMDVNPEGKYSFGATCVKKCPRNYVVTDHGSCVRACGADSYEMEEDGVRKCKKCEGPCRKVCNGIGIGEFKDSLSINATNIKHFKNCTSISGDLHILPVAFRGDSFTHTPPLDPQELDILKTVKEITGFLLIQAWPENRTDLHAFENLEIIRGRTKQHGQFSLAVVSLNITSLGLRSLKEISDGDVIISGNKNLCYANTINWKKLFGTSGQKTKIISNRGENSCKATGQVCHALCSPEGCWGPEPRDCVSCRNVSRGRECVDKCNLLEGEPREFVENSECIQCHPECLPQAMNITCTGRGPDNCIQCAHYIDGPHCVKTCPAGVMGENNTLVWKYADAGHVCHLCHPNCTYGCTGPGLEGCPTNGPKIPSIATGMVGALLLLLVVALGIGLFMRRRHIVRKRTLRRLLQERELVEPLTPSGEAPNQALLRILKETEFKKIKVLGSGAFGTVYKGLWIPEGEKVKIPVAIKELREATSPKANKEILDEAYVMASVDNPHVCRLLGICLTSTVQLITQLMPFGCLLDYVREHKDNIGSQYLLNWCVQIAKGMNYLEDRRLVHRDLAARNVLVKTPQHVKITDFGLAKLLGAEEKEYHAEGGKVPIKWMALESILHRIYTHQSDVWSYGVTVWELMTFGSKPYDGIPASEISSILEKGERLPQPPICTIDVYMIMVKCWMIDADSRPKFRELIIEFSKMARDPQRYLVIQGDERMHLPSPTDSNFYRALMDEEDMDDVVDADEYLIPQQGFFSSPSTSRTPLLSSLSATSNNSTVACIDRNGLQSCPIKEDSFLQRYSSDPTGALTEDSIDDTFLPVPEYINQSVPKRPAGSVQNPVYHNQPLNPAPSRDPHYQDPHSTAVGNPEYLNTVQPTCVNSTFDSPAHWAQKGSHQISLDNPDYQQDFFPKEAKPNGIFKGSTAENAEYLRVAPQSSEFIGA
ROCK1, sequence (Q13464 whole entry): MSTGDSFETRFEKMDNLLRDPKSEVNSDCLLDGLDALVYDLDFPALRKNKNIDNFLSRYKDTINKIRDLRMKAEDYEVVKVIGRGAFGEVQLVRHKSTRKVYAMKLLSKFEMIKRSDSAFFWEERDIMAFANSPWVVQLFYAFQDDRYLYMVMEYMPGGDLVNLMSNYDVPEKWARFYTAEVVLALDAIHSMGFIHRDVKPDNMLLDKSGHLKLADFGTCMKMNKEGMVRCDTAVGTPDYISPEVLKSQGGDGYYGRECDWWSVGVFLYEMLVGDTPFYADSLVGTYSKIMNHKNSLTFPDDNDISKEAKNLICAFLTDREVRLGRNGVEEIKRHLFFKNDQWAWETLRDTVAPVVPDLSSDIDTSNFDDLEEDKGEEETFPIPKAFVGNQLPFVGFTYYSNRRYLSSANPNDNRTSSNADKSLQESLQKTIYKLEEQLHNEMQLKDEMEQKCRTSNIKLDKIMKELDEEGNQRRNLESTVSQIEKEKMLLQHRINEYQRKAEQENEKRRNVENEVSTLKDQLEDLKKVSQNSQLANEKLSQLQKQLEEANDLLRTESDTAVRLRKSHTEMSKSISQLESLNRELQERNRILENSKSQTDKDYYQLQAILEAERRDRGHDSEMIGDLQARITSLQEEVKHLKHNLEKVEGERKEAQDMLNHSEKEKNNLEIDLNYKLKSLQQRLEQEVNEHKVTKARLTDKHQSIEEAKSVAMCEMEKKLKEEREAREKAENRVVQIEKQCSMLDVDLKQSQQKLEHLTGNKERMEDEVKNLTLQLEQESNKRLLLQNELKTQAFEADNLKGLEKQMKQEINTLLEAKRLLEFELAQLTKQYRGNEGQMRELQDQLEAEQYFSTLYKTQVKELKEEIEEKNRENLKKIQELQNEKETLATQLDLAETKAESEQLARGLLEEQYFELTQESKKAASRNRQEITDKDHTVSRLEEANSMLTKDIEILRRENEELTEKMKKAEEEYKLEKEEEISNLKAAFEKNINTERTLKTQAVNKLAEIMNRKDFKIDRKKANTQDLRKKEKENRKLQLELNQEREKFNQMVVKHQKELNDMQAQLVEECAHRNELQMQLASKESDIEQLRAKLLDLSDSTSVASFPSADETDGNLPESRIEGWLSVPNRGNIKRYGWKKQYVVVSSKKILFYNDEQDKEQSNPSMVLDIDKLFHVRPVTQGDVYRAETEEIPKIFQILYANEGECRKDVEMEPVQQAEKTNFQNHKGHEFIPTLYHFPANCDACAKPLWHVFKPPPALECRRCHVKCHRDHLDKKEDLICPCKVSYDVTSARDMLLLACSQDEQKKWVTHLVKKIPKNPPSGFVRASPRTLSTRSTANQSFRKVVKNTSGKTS
FGFR2, sequence (P21802 22-821): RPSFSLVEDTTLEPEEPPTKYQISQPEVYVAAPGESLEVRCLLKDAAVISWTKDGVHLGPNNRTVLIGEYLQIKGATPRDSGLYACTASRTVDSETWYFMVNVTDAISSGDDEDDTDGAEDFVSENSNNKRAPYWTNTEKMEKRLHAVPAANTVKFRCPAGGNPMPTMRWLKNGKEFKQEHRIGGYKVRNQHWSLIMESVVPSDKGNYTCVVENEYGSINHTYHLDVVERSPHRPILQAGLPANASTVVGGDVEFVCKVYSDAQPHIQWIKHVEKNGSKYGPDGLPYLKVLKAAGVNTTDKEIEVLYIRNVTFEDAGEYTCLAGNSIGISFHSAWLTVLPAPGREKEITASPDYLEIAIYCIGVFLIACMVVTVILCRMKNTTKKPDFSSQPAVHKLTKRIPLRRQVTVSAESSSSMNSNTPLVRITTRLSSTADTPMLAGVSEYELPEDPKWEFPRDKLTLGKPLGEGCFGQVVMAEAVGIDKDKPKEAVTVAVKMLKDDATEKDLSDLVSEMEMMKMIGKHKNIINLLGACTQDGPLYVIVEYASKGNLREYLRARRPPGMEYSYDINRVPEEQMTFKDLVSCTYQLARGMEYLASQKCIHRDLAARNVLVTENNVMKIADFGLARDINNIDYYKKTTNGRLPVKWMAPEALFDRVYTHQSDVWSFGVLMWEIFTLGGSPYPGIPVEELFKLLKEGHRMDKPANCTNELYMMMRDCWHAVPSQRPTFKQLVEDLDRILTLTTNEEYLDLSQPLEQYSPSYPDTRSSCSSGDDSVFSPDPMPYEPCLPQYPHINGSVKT
IRAK4, sequence (Q9NWZ3 whole entry): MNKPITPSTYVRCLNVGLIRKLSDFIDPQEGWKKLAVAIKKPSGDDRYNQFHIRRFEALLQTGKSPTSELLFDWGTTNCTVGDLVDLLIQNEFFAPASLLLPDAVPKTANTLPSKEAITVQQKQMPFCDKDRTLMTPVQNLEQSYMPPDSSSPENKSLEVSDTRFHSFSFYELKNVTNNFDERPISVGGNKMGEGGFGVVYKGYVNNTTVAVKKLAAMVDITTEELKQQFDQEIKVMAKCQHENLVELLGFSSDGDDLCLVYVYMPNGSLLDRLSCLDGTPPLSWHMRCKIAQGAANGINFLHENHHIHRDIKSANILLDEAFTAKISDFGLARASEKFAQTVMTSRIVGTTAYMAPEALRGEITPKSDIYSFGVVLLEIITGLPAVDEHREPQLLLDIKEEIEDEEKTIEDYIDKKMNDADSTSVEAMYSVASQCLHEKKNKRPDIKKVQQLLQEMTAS
CLK3, sequence (P49761 whole entry): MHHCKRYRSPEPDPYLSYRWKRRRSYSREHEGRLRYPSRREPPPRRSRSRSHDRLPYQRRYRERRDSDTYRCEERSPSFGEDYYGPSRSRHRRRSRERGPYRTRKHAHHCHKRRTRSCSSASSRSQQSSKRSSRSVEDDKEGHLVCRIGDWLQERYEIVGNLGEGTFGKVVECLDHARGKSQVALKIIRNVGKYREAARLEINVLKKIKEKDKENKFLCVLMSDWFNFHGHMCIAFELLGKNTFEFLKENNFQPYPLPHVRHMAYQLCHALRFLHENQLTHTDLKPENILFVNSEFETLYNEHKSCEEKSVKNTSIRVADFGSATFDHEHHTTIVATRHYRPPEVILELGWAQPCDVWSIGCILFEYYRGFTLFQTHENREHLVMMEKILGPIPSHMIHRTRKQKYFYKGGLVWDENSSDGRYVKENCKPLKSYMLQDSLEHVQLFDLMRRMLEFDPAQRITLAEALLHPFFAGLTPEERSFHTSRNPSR
MAPKAPK2, sequence (P49137 whole entry): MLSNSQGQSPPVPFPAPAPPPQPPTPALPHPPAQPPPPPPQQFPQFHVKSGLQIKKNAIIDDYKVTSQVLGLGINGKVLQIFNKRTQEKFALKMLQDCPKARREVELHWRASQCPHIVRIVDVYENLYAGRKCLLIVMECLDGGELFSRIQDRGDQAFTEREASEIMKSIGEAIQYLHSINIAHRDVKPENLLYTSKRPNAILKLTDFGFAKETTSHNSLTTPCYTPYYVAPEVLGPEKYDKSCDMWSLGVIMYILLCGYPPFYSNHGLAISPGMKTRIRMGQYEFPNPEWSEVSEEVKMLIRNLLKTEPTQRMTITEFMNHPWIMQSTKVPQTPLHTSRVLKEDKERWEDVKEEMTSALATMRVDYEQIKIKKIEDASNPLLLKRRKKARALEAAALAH
ERK2, sequence (P28482 whole entry): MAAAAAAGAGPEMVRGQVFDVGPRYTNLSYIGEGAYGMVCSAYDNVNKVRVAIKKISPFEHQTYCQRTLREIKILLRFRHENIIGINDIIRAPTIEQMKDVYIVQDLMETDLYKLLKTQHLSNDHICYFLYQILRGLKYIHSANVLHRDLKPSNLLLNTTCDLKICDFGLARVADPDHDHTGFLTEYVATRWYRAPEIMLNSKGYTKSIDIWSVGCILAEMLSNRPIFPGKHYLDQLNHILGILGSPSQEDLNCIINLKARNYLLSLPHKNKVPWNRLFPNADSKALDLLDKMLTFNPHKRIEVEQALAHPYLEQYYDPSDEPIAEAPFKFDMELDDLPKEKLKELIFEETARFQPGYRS

## O=C(Nc1ccc(Cl)c(C(F)(F)F)c1)Nc1ccc2ncnc(Nc3cccc(Br)c3)c2c1 [Compound 7i]
A549 cells
  IC50: 2.25 ± 0.08 µM
HT-29 cells
  IC50: 1.72 ± 0.49 µM
MCF-7 cells
  IC50: 2.81 ± 0.09 µM
EGFR; ADP-Glo, mean ± SD of at least two independent experiments, read-out: Enzymatic inhibition IC50 (nM) EGFR
  IC50: 17.3 ± 0.54 nM
EGFR; remaining enzyme activity at 1 μm compound
  Enzyme activity % EGFR: 10.52 ± 0.26%
Aqueous solubility
  aqueous solubility: soluble
other
  melting point: 268 to 268.9 °C
FGFR2
  Enzyme activity % FGFR2: 91.07 ± 8.02%
HER4
  Enzyme activity % HER4: 76.85 ± 0.33%
LCK
  Enzyme activity % LCK: 86.84 ± 6.53%
Syk
  Enzyme activity % Syk: 101.13 ± 9.99%
FLT3
  Enzyme activity % FLT3: 92.18 ± 15.36%
NIK
  Enzyme activity % NIK: 76.97 ± 5.84%
PKCa
  Enzyme activity % PKCa: 77.27 ± 1.18%
ROCK1
  Enzyme activity % ROCK1: 78.70 ± 4.00%
PDK1
  Enzyme activity % PDK1: 74.18 ± 0.62%
PKACα
  Enzyme activity % PKACα: 86.02 ± 3.75%
Chk1
  Enzyme activity % Chk1: 75.98 ± 6.72%
MAPKAPK2
  Enzyme activity % MAPKAPK2: 86.46 ± 7.38%
MELK
  Enzyme activity % MELK: 78.83 ± 6.55%
CAMK2α
  Enzyme activity % CAMK2α: 72.67 ± 2.92%
CLK3
  Enzyme activity % CLK3: 86.80 ± 1.90%
ERK2
  Enzyme activity % ERK2: 97.31 ± 11.84%
GSK3β
  Enzyme activity % GSK3β: 103.71 ± 1.75%
IRAK4
  Enzyme activity % IRAK4: 86.33 ± 0.56%
B-raf
  Enzyme activity % B-raf: 96.68 ± 4.29%
Other protein kinases
  enzyme activity of the other protein kinases: > 50%
